From US7767681B2, “2-Carbamide-4-phenylthiazole derivatives, preparation thereof and therapeutic use thereof” (sanofi-aventis, priority 2004, dated 2010)
Where a name gives a salt, the structure may show the parent alone. Read-outs that look alike come from different tables or passages of the source.

What was measured:
[1] = test system: HIV-1 Bal virus; experiment: Inhibitory activity on PBMCs infected with HIV-1 Bal (reverse transcriptase in supernatant); assay type: cell-based; settings: compounds in culture medium for 5 days, read-out: IC50 viral replication (amount of reverse transcriptase in the supernatant)
Procedure: The inhibitory activity of the compounds according to the invention was also measured on PBMCs (peripheral blood mononuclear cells) infected with the HIV-1 Bal virus, according to a technique adapted from that described by V. Dolle et al., J. Med. Chem., 2000, 43, 3949, 3962. According to this technique, the PBMCs are infected with HIV-1 Bal and the compounds to be tested are then added to the culture medium for 5 days. At the end of this exposure, the amount of reverse transcriptase in the supernatant is measured, which correlates with the level of viral replication in the cells.

[2] = target: T1, human CCR2b receptor (Homo sapiens, UniProt P41597); experiment: Inhibitory activity on cells expressing the human CCR2b receptor; assay type: cell-based
T1 sequence (P41597 1-360 isoform P41597-2): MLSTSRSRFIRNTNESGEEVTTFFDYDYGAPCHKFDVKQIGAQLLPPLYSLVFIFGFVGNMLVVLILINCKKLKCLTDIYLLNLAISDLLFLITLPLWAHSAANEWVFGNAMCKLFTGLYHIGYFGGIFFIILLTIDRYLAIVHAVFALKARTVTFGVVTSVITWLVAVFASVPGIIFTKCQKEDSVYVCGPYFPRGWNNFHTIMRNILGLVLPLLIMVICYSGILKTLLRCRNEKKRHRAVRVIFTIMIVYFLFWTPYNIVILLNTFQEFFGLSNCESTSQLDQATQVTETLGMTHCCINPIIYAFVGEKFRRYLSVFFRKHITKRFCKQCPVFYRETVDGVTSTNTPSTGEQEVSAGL
Procedure: The inhibitory activity of the compounds according to the invention on cells expressing the human CCR2b receptor was measured.

[3] = test system: human THP-1 monocyte cells; experiment: Inhibition of chemotaxis on human THP-1 monocyte cells; assay type: cell-based; settings: read-out: IC50 inhibition of chemotaxis (hMCP-1)
Procedure: The inhibition of chemotaxis was also measured on human THP-1 monocyte cells (sold by DSMZ—Germany), using a technique adapted from that described by A. Albini et al., Cancer Res., 1987, 47, 3239-3245.
The inhibition of chemotaxis by the compounds according to the invention is a sign of their antagonistic activity on chemokine receptors, and in particular the CCR2b receptor.

[4] = read-out: IC50 of the activity of the CCR2b receptor

Molecule | melting point | IC50 [2, 4] | also measured
CCCc1ccc(OC)c(-c2csc(NC(=O)N3CCN(CCCN(CC)CC)CC3)n2)c1 (as salt: HCl) [Compound No. 14] | 145 °C | – | –
Cc1cn([C@H]2C[C@H](N=[N+]=[N-])[C@@H](CO)O2)c(=O)[nH]c1=O [AZT] | – | – | IC50 [1]: < 1000 nM
CCCc1ccc(OC)c(-c2csc(NC(=O)N3CCN(CCCN(CC)CC)CC3)n2)c1 [Compound No. 14] | – | 3.3 nM | –
hMCP-1: human monocyte chemotactic protein, CC chemokine, natural agonist of the CCR2b receptor [reference compound] | – | – | IC50 ([2]; read-out: IC50 of the activity of the CCR2b receptor (natural agonist hMCP-1)): 0.57 nM; IC50 [3]: 6 nM
COc1ccc(C2CCCC2)cc1-c1csc(NC(=O)N2CCN(CC3CCN(C)CC3)CC2)n1 [Compound No. 55] | 102 °C | 14 nM | –
